The numbers were not newly measured in patent publication US11304898B2, “Method of treating carcinoma” (SUN PHARMA ADVANCED RESEARCH COMPANY LTD, priority 2015, dated 2022), which cites them from elsewhere.

The structures appear in SMILES notation.

The subject of series [1] is bile tract cancer. The following applies: Phase II studies, bile tract cancer patients.
Series [2] has as its system bile tract cancer. The following applies: EORTC study.

With `O=c1[nH]cc(F)c(=O)[nH]1` [Example 5-FU, 5-Fluorouracil], the achieved response rate result in the series on bile tract cancer [1] is given as “less than 20%”. Regarding `CO[C@@]12[C@H](COC(N)=O)C3=C(C(=O)C(C)=C(N)C3=O)N1C[C@@H]1N[C@@H]12` [Mit-C, mitomycin-C], the objective response rate with bile tract cancer [2] is on record as 10%.
